In brackets after ≈: the same amount, converted by molar mass. Activity calls are given as the source filed them. No cut-off for these calls is given here.
Tests used:
Staphylococcus aureus [1] = assay: Antibacterial activity against Staphylococcus aureus ATCC 25923 assessed as bacterial growth inhibition measured after 20 hrs by CLSI protocol based broth microdilution method; format: functional
Escherichia coli [2] = assay: Antibacterial activity against Escherichia coli assessed as zone of inhibition by plate agar diffusion method; format: functional
Bacillus subtilis [3] = assay: Antibacterial activity against Bacillus subtilis 168 assessed as diameter of zone of inhibition by agar plate diffusion method; format: functional
Escherichia coli [4] = assay: Antibacterial activity against Escherichia coli MG1655 assessed as bacterial growth inhibition measured after 20 hrs by CLSI protocol based broth microdilution method; format: functional
Bacillus subtilis [5] = assay: Induction of morphological changes Bacillus subtilis 168 assessed as morphological changes by measuring cell lysis with cell debris and ghost cells at 3 times MIC incubated for 3 hr by phase-contrast microscopic analysis; format: functional, organism-based
3T3-L1 = assay: Cytotoxicity against mouse 3T3-L1 cells assessed as reduction in cell viability at 50 ug/ml measured after 24 to 72 hrs y MTT assay; format: cell-based; conditions: time 24-72 hrs, dose 50 µg/ml
Bacillus subtilis [6] = assay: Induction of morphological changes in Bacillus subtilis 168 assessed as cell lysis at 2.5 to 3.5 times MIC incubated for 1 hr by phase-contrast microscopic analysis; format: functional, organism-based
Bacillus subtilis [7] = assay: Bacteriostatic activity against Bacillus subtilis 168 assessed as reduction in bacterial growth measured after 20 hrs by CLSI protocol based broth microdilution method; format: functional, organism-based
Bacillus subtilis [8] = assay: Antibacterial activity against Bacillus subtilis 168 assessed as bacterial growth inhibition measured after 20 hrs by CLSI protocol based broth microdilution method; format: functional
Bacillus subtilis [9] = assay: Induction of morphological changes in Bacillus subtilis 168 assessed as cell lysis at 2.5 to 3.5 times MIC incubated for 2 hrs by phase-contrast microscopic analysis; format: functional, organism-based
Staphylococcus aureus [10] = assay: Bacteriostatic activity against Staphylococcus aureus ATCC 25923 assessed as reduction in bacterial growth measured after 20 hrs by CLSI protocol based broth microdilution method; format: functional, organism-based
Bacillus subtilis [11] = assay: Induction of morphological changes in Bacillus subtilis 168 assessed as bulbous distortion at 2.5 to 2.75 times MIC incubated for 3 hr by phase-contrast microscopic analysis; format: functional, organism-based
Bacillus subtilis [12] = assay: Induction of morphological changes in Bacillus subtilis 168 assessed as immediate cell lysis at >8 ug/ml incubated for 120 mins by phase-contrast microscopic analysis; format: functional, organism-based; conditions: dose > 8.0 µg/ml
[13] = Cytotoxicity against mouse 3T3-L1 cells assessed as cell viability at 25 ug/ml measured up to 72 hrs y MTT assay relative to control; format: cell-based; conditions: at 25 µg/mL, read-out: Activity

SMILES	MIC95 (Staphylococcus aureus [1])	MIC95 (Escherichia coli [4])	also measured
COc1ccc(-c2cc(-c3ccc(-c4ccccc4)cc3)n[nH]2)cc1OC	> 128 µg/mL	> 128 µg/mL	diameter of the inhibition zone (DIZ) (Escherichia coli [2]): 20 mm; diameter of the inhibition zone (DIZ) (Bacillus subtilis [3]): 13 mm
COc1ccc(-c2cc(-c3ccc(-c4ccccc4)cc3)n[nH]2)cc1	> 128 µg/mL	> 128 µg/mL	–
COc1ccc(-c2cc(-c3ccc(-c4ccc(Cl)cc4)cc3)n[nH]2)c(OC)c1	> 128 µg/mL	> 128 µg/mL	–
CC(C)(C)c1ccc(-c2ccc(-c3cc(-c4ccc(OCc5ccccc5)cc4)[nH]n3)cc2)cc1	> 128 µg/mL	> 128 µg/mL	–
COc1cc(-c2cc(-c3ccc(-c4ccccc4)cc3)n[nH]2)ccc1O	8 µg/mL (≈ 23.4 µM)	> 128 µg/mL	Activity (Bacillus subtilis [5]): Active; Activity (3T3-L1): Non-Toxic; Activity (Bacillus subtilis [6]): Active; Activity (Bacillus subtilis [7]): Active; MIC (Bacillus subtilis [8]): 8 µg/mL (≈ 23.4 µM); Activity (Bacillus subtilis [9]): Active; Activity (Staphylococcus aureus [10]): Active; Activity (Bacillus subtilis [11]): Active; Activity (Bacillus subtilis [12]): inactive
COc1ccc(OC)c(-c2cc(-c3ccc(-c4ccc(C(C)(C)C)cc4)cc3)n[nH]2)c1	> 128 µg/mL	> 128 µg/mL	–
COc1ccc(-c2cc(-c3ccc(-c4ccc(C(C)(C)C)cc4)cc3)n[nH]2)cc1	> 128 µg/mL	> 128 µg/mL	–
COc1cc(-c2cc(-c3ccc(C(C)(C)C)cc3)n[nH]2)ccc1O	32 µg/mL (≈ 99.3 µM)	> 128 µg/mL	viability at 72 h, 25 ug/ml [13]: 85%; Activity (Bacillus subtilis [7]): Active; MIC (Bacillus subtilis [8]): 16 µg/mL (≈ 49.6 µM); Activity (Staphylococcus aureus [10]): Active
COc1ccc(-c2cc(-c3ccc(-c4ccc(Cl)cc4)cc3)n[nH]2)cc1OC	> 128 µg/mL	> 128 µg/mL	–
COc1ccc(-c2cc(-c3ccc(-c4ccc(C(C)(C)C)cc4)cc3)n[nH]2)cc1OC	> 128 µg/mL	> 128 µg/mL	–
COc1ccc(OC)c(-c2cc(-c3ccc(-c4ccccc4)cc3)n[nH]2)c1	> 128 µg/mL	> 128 µg/mL	–
Clc1ccc(-c2ccc(-c3cc(-c4ccc(OCc5ccccc5)cc4)[nH]n3)cc2)cc1	> 128 µg/mL	> 128 µg/mL	–
Oc1cccc(-c2cc(-c3ccc(-c4ccccc4)cc3)n[nH]2)c1	> 128 µg/mL	> 128 µg/mL	–
COc1ccc(-c2cc(-c3ccc(-c4ccc(Cl)cc4)cc3)n[nH]2)cc1	> 128 µg/mL	> 128 µg/mL	–
COc1cc(-c2cc(-c3ccc(-c4ccc(Cl)cc4)cc3)n[nH]2)ccc1OCc1ccccc1	> 128 µg/mL	> 128 µg/mL	–
Clc1ccc(-c2ccc(-c3cc(-c4cccc(OCc5ccccc5)c4)[nH]n3)cc2)cc1	> 128 µg/mL	> 128 µg/mL	–
COc1ccc(OC)c(-c2cc(-c3ccc(-c4ccc(Cl)cc4)cc3)n[nH]2)c1	> 128 µg/mL	> 128 µg/mL	–

— ChEMBL document CHEMBL5055649, “Synthesis and biological evaluation of 3,5-substituted pyrazoles as possible antibacterial agents” (Bioorg Med Chem, 2021)
